How the values were obtained:
male Wistar rats [1] = assay: Subtotal nephrectomy (remnant kidney) model; assay type: in vivo, rat
Procedure: In the chronic disease models of subtotal nephrectomy and inflammation, the sodium salt of BAY 85-3934 was used. For administration in drinking water, BAY 85-3934 sodium and enalapril were prepared as 100 mM sodium bicarbonate saline solutions (adjusted to pH 7) at final concentrations of 80 ppm and 30 ppm, respectively. Sham and vehicle control animals received saline only. Unless otherwise stated, chemicals and reagents were purchased from Sigma-Aldrich.
Subtotal nephrectomy was conducted in adult male Wistar rats. Body weight, blood pressure, hematocrit, and blood cell counts were determined at baseline and thereafter at weekly intervals. At baseline, rats were randomly distributed into two groups: those that underwent subtotal nephrectomy and those that underwent a sham procedure without reduction of renal mass. Surgery was performed in deeply anesthetized (2% isoflurane in air) animals. Kidneys were accessed via a dorsolateral incision of the body wall of about 2 cm in length. The right kidney was removed after ligature of the renal peduncle, and subsequently the upper and lower pole of the left kidney were removed, followed by careful hemostasis. Approximately one third of the initial kidney mass remained (removed tissue was weighed to check this was achieved). In the sham-treated animals, both kidneys were exposed before closure of the wound. Three weeks after surgery, animals were allocated to each group in equal proportions with respect to systolic blood pressure and hematocrit values. For 5 weeks, animals were treated twice weekly with rhEPO (100 IU/kg), or once daily with […] (2.5 mg/kg or 5.0 mg/kg) or vehicle. In experiments using enalapril or a combination of BAY 85-3934 sodium and enalapril, study drugs were administered with drinking water. BAY 85-3934 sodium and enalapril were administered in drinking water at concentrations of 80 ppm and 30 ppm, respectively. This was equivalent to approximately 2 mg/kg/day for enalapril and 5 mg/kg/day for BAY 85-3934. Systolic blood pressure and heart rate were determined using the tail-cuff method (a semi-automatic, non-invasive blood pressure monitor; TSE Systems), with three repeated measurements per animal.
(§1) EPO was measured in plasma samples taken from rodents using a commercial ELISA kit (R&D Systems), according to the manufacturer’s instructions. Relative plasma EPO levels were given in picograms per milliliter. In cynomolgus monkeys, EPO was measured using a combination anti-human EPO ELISAs (R&D Systems and Roche Diagnostics), with human EPO as a standard. Values were given as units per liter. For determination of plasma prorenin from rats, a commercial ELISA (Oxford Biomedical Research) was used according to the manufacturer’s instructions. Hemoglobin in rodent blood samples was determined on a Cell-Dyn 3700 apparatus (Abbott Diagnostics). BAY 85-3934 plasma concentrations were determined after protein precipitation with acetonitrile/ammonium acetate using an internal standard, followed by separation using HPLC/mass spectrometry.
As well as anemia and inflammation, CKD is often accompanied by hypertension, upon which treatment with rhEPO may have an unfavorable impact. The effects of BAY 85-3934 were compared with rhEPO in the remnant kidney (subtotal nephrectomy) model in rats.

male Wistar rats [2] = assay: Comparison of oral BAY 85-3934 with rhEPO on erythropoiesis; assay type: in vivo, rat; settings: BAY 85-3934 2.5 mg/kg once daily oral; rhEPO 25, 50, 100 IU/kg twice weekly s.c.; p<0.001 at day 30
Procedure: Male Wistar rats (240–340 g in body weight) were housed with five animals per cage for at least 1 week before experimentation. Blood samples from rats were collected under anesthesia (2% isoflurane in air) by puncturing the retro-orbital vein plexus with a glass capillary. In a repeat-dose, 26-day experiment, animals were administered vehicle or BAY 85-3934 at doses of 0.5 mg/kg, 1.25 mg/kg, 2.5 mg/kg, and 5 mg/kg. PCV was determined at baseline and at weekly intervals after centrifugation in a hematocrit capillary tube (Brand) for 10 min at full speed in a Haemofuge centrifuge (Heraeus). The number of reticulocytes in 5 µl blood was counted after staining with thiazol orange (Becton Dickinson) according to the manufacturer’s instructions by FACS analysis on a BD FACSCalibur system (Becton Dickinson). The efficacy of BAY 85-3934 (2.5 mg/kg, once-daily, oral) was also compared with that of rhEPO (25 IU/kg, 50 IU/kg, and 100 IU/kg, twice-weekly, s.c. injection). […] The efficacy of oral treatment with BAY 85-3934 was compared with that of standard rhEPO treatment in male Wistar rats.

cynomolgus monkeys = assay: Comparison of BAY 85-3934 with rhEPO (single dose and 14-day repeat dose); assay type: in vivo, cynomolgus monkey
Procedure: Male and female cynomolgus monkeys (2.8–5.6 kg in body weight) were used, which were housed two per cage. Blood samples from conscious cynomolgus monkeys were taken by puncturing a superficial vein. In a 5-day, repeat-dose study of plasma EPO response, BAY 85-3934 was administered at doses of 0.5 mg/kg and 1.5 mg/kg at 0 h, 24 h, 48 h, 72 h, and 96 h. Blood samples were taken at 7 h, 31 h, 55 h, 79 h, 103 h, and 168 h. Erythropoietic parameters were also evaluated after a 2-week treatment period with s.c. administration of rhEPO (100 IU/kg twice weekly at days 1, 4, 8, and 11) and BAY 85-3934 (1.5 mg/kg) once daily.
as §1
In a further study, the efficacy of oral treatment with BAY 85-3934 was evaluated in comparison with rhEPO. Animals were administered a single dose of rhEPO (100 IU/kg) by s.c. injection or BAY 85-3934 (1.5 mg/kg, oral). After administration of rhEPO, plasma concentrations of rhEPO were more than 8-fold higher than the endogenous EPO levels induced by treatment with BAY 85-3934 (Fig. 3B). The area under the curve (AUC) of rhEPO was more than 6-fold higher than the AUC of endogenous EPO. […] Mean reticulocyte counts were 2-fold higher after treatment with rhEPO than after treatment with BAY 85-3934, but returned to baseline values 8 days after treatment cessation.

[3] = drinking water, 5 weeks: BAY 85-3934 sodium 80 ppm, enalapril 30 ppm
[4] = single dose rhEPO 100 IU/kg s.c. vs BAY 85-3934 1.5 mg/kg oral

Molecule	mean PCV (male Wistar rats [1]; [3])	mean systolic blood pressure compared with control (male Wistar rats [1]; [3])	plasma prorenin levels (male Wistar rats [1]; [3])	hematocrit compared with the control group (male Wistar rats [2])	mean reticulocyte counts relative to BAY 85-3934 treatment (cynomolgus monkeys; 14-day repeat dose) [fold]	time after treatment cessation at which reticulocyte counts returned to baseline (cynomolgus monkeys; 14-day repeat dose) [days]	mean gains of hemoglobin and red blood cells, both treatments compared (cynomolgus monkeys; 14 days, rhEPO 100 IU/kg twice weekly s.c., BAY 85-3934 1.5 mg/kg once daily)	AUC of rhEPO relative to AUC of endogenous EPO (cynomolgus monkeys; [4])	plasma rhEPO concentration relative to endogenous EPO induced by BAY 85-3934 (cynomolgus monkeys; [4])	systolic blood pressure compared with untreated controls (male Wistar rats [1]; 5 weeks, tail-cuff)	mean PCV (male Wistar rats [1]; BAY 85-3934 2.5 and 5 mg/kg once daily, rhEPO 100 IU/kg twice weekly)	cardiac hypertrophy (male Wistar rats [1]; data not shown)
[Na+].[O-]c1c(-n2ccnn2)cnn1-c1cc(N2CCOCC2)ncn1 [BAY 85-3934 sodium]	increasing	significantly reduced										
CCOC(=O)[C@H](CCc1ccccc1)N[C@@H](C)C(=O)N1CCC[C@H]1C(=O)O [enalapril, reference compound]	remained unchanged	significant reduction	reversion of plasma prorenin levels to normal values									
rhEPO: Human recombinant EPO (Ortho Biotech), s.c. injection				significant increase	2	8	almost completely congruent over time	more than 6 fold	more than 8 fold	no difference	significantly increased	manifested
